Test results reported in patent US5998596A, “Inhibition of protein kinase activity by aptameric action of oligonucleotides” (The United States of America as represented by the …).
pIC50: −log10 of the molar value.

Key:
[1] = system: p210^bcr-abl kinase in K562 cells; assay: Immunoprecipitation kinase assay of p210bcr-abl from ODN treated K562 cells; type: cell-based, human; conditions: K562 cells incubated 3 days with 50 μM ODN, washed
Procedure: Immunoprecipitation kinase assays of p210^bcr-abl p145^abl were performed as described, with modifications (15). Briefly, for p210^bcr-abl, 1 μg of anti-bcr antibody (clone 7C6, Oncogene Science, Uniondale, N.Y.) was added to lysates prepared from 0.5-1×10^6 K562 cells. For p145^abl, 1 μg of anti-c-abl antibody (clone 24-21), which binds to the C-terminal domain of p145^abl, was added to lysates prepared from 5×10^6 PC3M cells. After incubating 1 hour at 4° C., complexes were precipitated by incubating with protein A-Sepharose coated with rabbit anti-mouse immunoglobulin (Cappel Research Products, Durham, N.C.) for 30 minutes. The complexes were then washed as follows: ABL lysis buffer×2, PBS×1, and ABL assay buffer×1 (24 mM imidazole, pH 7.2, 1 mg/ml bovine serum albumin, and 10 mM MnCl). For p145^abl assays ABL assay buffer contained 20 mM MnCl. To access the activity of p210^bcr-abl on substrate phosphorylation, acid inactivated enolase (Sigma Chemical Co., St. Louis, Mo.) was added as described (15).
ODNs were added to kinase reaction buffers not more than 5 minutes prior to the addition of ATP. Reactions were initiated by the addition of [γ^-32 P] ATP (3000 Ci/mmole; Amersham Corp., Arlington Heights, Ill.) and quenched by the addition of 5× gel loading buffer and heating to 95° C. Kinase reactions were run for 1-10 minutes at room temperature, except for EGFR, p145^abl, and MAP kinase, which were run at 30° C. The products were then electrophoresed on SDS-polyacrylamide gels: 7% for p210^bcr-abl, EGFR, and PDGFR, 8% for p145^abl, 10% for src, lck, and cdc-2 kinase, and 12% for MAP kinase. Gels were dried and reaction products were visualized by direct autoradiography at -70° C. with Kodak X-OMAT AR film. To determine the inhibitory concentration 50, i.e., the concentration required to inhibit enzyme activity by 50% (IC50) and Ki values, gel slices containing the band of interest were excised and analyzed by Cerenkov counting.
The effects of ODN1 on a cellular system were assessed. […] After 3 days, cells were washed and p210^bcr-abl kinase activity was measured. […] Neither cellular p210^bcr-abl protein content nor cell growth was affected by ODN treatment (data not shown).

[2] = system: MAP kinase; assay: MAP kinase assay with purified enzyme; type: biochemical; conditions: Cerenkov counting of excised gel slices
Excerpt: The p210^bcr-abl kinase, src kinase and cdc-2 kinase were immunoprecipitated from K562 cells. The p145^abl kinase was immunoprecipitated from PC3M cells, PDGF receptor kinase from 3T3 cells, and EGF receptor kinase from A431 cells. MAP kinase was utilized as a pure protein and lck kinase was immunoprecipitated from peripheral blood lymphocytes of a normal volunteer.
Epidermal growth factor receptor (EGFR) was immunoprecipitated with 10 ,g anti-EGFR antibody (clone LA1) and human recombinant epidermal growth factor (both from Upstate Biotechnology Inc., Lake Placid, N.Y.). The assay was performed as described (17) but without removing the EGFR from the protein A-antibody solid support. Instead, epidermal growth factor, at a final concentration of 100 nM, was added to the kinase reaction mixture. Platelet derived growth factor receptor (DGFR) was immunoprecipitated with anti-human type A/type B PDGFR antibody (Upstate Biotechnology Inc.) and immune complex kinase assays performed as referenced (18) except that protein A-Sepharose coated with rabbit anti-mouse immunoglobulin was used instead of formalin-fixed Staphylococcus aureus to bind PDGFR-antibody conjugates. C-src was immunoprecipitated with anti-v-src antibody (Ab-1; Oncogene Science) and assayed as previously described (19) with the addition of enolase as exogenous substrate. […]

[3] = system: K562 cells; assay: K562 colony formation in soft agar; type: cell-based, human; conditions: 50 μM ODN, two weeks, not electroporated
Procedure: K562, NIH 3T3, and A431 cells were purchased from the American Type Culture Collection (Rockville, Md.). PC3M prostate cancer cells were a generous gift from J. Trepel (National Institutes of Health, Bethesda, Md.). K562 and PC3M cells were cultured in RPMI 1640 with 10% heat-inactivated fetal bovine serum (FBS; GIBCO BRL, Grand Island, N.Y.) while NIH 3T3 and A431 cells were cultured in Dulbecco's modified Eagle's medium (Biofluids, Rockville, Md.) with 10% heat inactivated FBS. Cells were maintained at 37° C., 6% carbon dioxide with biweekly media changes. For soft agar cloning, cells were suspended in 0.3% low melting temperature agarose (SeaPlaque FMC BioProducts, Rockland, Me.) in RPMI 1640 with 10% total calf serum and maintained as above.
To evaluate the effects of these various ODNs of K562 cell growth, both growth in liquid culture and growth in soft agar were examined. […] Cells were electroporated in the presence of 50 μM ODN and kept in liquid culture. For soft agar cloning experiments, cells were not electroporated, but were grown in the presence of 50 μM ODN for two weeks. Liquid cultures were replenished with fresh medium containing 50 μM ODN. Two weeks following incubation in liquid culture, the number of trypan blue-excluding cells was determined. No effect on cell growth in liquid culture could be observed with any ODN tested (data not shown).

[4] = system: p210^bcr-abl protein level in K562 cells; assay: Western analysis of p210bcr-abl protein level in ODN treated K562 cells; type: cell-based, human; conditions: one hour after electroporation with 100 μM ODN
Procedure: For p210^bcr-abl Western analysis, probing was carried out with the ECL Western blotting kit (Amersham) according to manufacturer's instructions. Briefly, membranes were blocked in 5% non-fat dry milk in TTBS for 1 hour, incubated with anti-p210^bcr-abl antibody (clone 8E9, Pharmingen, San Diego, Calif.) diluted 1:500 in TTBS for 1 hour, with sheep anti-mouse horseradish peroxidase-linked antibody (diluted 1:1000) for 1 hour, and lastly incubated in a luminol based detection solution for 1 minute. Membranes were exposed to Kodak X-OMAT AR film for various time periods.
Electroporation was performed as described (40). Briefly, 1-5×10^6 cells in 1 ml of RPMI 1640 with 10% fetal calf serum were placed into 0.4 cm gap electroporation chambers and electroporated with a Cell-Porator Electroporation System 1 (all from GIBCO BRL, Grand Island, N.Y.) at 800 microfarrads, 300 volts, at room temperature. Cells were then incubated at 37° C. for 1 hour before manipulation.

With “5'-GTCCACCATGGCGCGGCCGGC-3' [ODN1] (phosphorothioate caps, further chemistry not given here) [21mer ODN complementary to nucleotides -12 to +9 of the p210bcr-abl mRNA, phosphorothioate capped unless otherwise specified]” the “p210^bcr-abl kinase activity of ODN treated K562 cells” value [1] was “significantly decreased”, the “p210^bcr-abl kinase activity of ODN treated K562 cells” value ([1]; listed as BCR-AS) was “reduction” and the pIC50 [2] was under 4.00. For the same substance, the “ability to form colonies in soft agar” value [3] was “inhibited the ability of these cells to form colonies in soft agar” and the “p210^bcr-abl protein level” value [4] was “no decrement”.
